What was measured:
[1] = target: T1, farnesyl protein transferase (Homo sapiens, UniProt P49354+P49356); assay: FPT IC50 (H-ras), inhibition of farnesyl protein transferase, in vitro enzyme assay; assay type: biochemical
Method: (§1) FPT IC50 (inhibition of farnesyl protein transferase, in vitro enzyme assay) and COS Cell IC50 (Cell-Based Assay) were determined following the assay procedures described in WO 95/10516, published April 20, 1995. GGPT IC50 (inhibition of geranylgeranyl protein transferase, in vitro enzyme assay), Cell Mat Assay, and anti-tumor activity (in vivo anti-tumor studies) could be determined by the assay procedures described in WO 95/10516. The disclosure of WO 95/10516 is incorporated herein by reference thereto.

COS Cell = COS Cell IC50 (Cell-Based Assay)
Method: as §1

Human tumor cells = assay: Soft Agar Assay (anchorage-independent growth); assay type: cell-based
Method: Anchorage-independent growth is a characteristic of tumorigenic cell lines. Human tumor cells are suspended in growth medium containing 0.3% agarose and an indicated concentration of a farnesyl transferase inhibitor. The solution is overlayed onto growth medium solidified with 0.6% agarose containing the same concentration of farnesyl transferase inhibitor as the top layer. After the top layer is solidified, plates are incubated for 10-16 days at 37°C under 5% CO2 to allow colony outgrowth. After incubation, the colonies are stained by overlaying the agar with a solution of MTT (3-[4,5-dimethyl-thiazol-2-yl]-2,5-diphenyltetrazolium bromide, Thiazolyl blue) (1 mg/mL in PBS). Colonies can be counted and the IC50's can be determined.

[2] = target: T1, farnesyl protein transferase; assay: FPT IC50 (K-ras), inhibition of farnesyl protein transferase, in vitro enzyme assay; assay type: biochemical
Method: as §1

T1 sequence (P49356 whole entry, one chain of several): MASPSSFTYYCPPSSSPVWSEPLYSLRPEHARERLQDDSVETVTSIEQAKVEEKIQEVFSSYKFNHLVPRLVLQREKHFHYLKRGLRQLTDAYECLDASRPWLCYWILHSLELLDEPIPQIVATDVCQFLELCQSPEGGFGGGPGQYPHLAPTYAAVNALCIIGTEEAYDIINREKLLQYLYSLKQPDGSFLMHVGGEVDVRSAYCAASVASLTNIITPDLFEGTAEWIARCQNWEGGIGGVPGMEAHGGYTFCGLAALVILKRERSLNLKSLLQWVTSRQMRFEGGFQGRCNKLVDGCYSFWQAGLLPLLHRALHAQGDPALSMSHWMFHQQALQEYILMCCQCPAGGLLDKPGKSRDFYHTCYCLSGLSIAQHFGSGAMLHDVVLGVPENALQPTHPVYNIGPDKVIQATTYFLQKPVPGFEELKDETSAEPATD

O=C(CC1CCN(S(=O)(=O)c2ccccc2)CC1)N1CCC([C@H]2c3ncc(Br)cc3CCc3cc(Cl)cc(Br)c32)CC1 [Example 1]
IC50 [1]: 72 nM

CS(=O)(=O)N1CCC(CC(=O)N2CCN(C3c4ccc(Cl)cc4CCc4cc(Br)cnc43)CC2)CC1 (stereo not shown) [Example 15]
IC50 [1]: 54 nM

CCCS(=O)(=O)N1CCC(CC(=O)N2CCC([C@H]3c4ncc(Br)cc4CCc4cc(Cl)cc(Br)c43)CC2)CC1 [Example 7]
IC50 (COS Cell): 30 nM
IC50 (Human tumor cells): 250 nM

O=C(CC1CCN(S(=O)(=O)c2ccc(-c3ccccn3)s2)CC1)N1CCC([C@H]2c3ncc(Br)cc3CCc3cc(Cl)cc(Br)c32)CC1 [Example 12]
inhibition at […] ([1]; @73 nM, read-out: FPT inhibition (H-ras) at a single concentration): 34%

NS(=O)(=O)N1CCC(CC(=O)N2CCN(C3c4ccc(Cl)cc4CCc4cc(Br)cnc43)CC2)CC1 (stereo not shown) [Example 16]
IC50 [1]: 80 nM

CN(C)S(=O)(=O)N1CCC(CC(=O)N2CCC([C@H]3c4ncc(Br)cc4CCc4cc(Cl)cc(Br)c43)CC2)CC1 [Example 3]
IC50 (COS Cell): 9 nM
IC50 [2]: 10 nM
IC50 [1]: 7.3 nM
IC50 (Human tumor cells): 100 nM

O=C(CC1CCN(S(=O)(=O)Cc2ccccc2)CC1)N1CCC([C@H]2c3ncc(Br)cc3CCc3cc(Cl)cc(Br)c32)CC1 [Example 9]
IC50 (COS Cell): 350 nM

CC1(C)C2CCC1(CS(=O)(=O)N1CCC(CC(=O)N3CCC([C@H]4c5ncc(Br)cc5CCc5cc(Cl)cc(Br)c54)CC3)CC1)C(=O)C2 (stereo partly shown) [Example 11]
IC50 [1]: 34.8 nM

O=C(CC1CCN(S(=O)(=O)c2cccs2)CC1)N1CCC([C@H]2c3ncc(Br)cc3CCc3cc(Cl)cc(Br)c32)CC1 [Example 13]
IC50 [1]: 20 nM

Cn1cnc(S(=O)(=O)N2CCC(CC(=O)N3CCC([C@H]4c5ncc(Br)cc5CCc5cc(Cl)cc(Br)c54)CC3)CC2)c1 [Example 14]
IC50 [2]: 23 nM
IC50 [1]: 5.7 nM

CS(=O)(=O)N1CCC(CC(=O)N2CCC([C@H]3c4ncc(Br)cc4CCc4cc(Cl)cc(Br)c43)CC2)CC1 [Example 2]
IC50 (Human tumor cells): 50 nM
